Data set [1] is described as follows: Biodistribution of Cy5.5-labeled siRNA in liver tumor-bearing mice. The data set is classed as in vivo. The settings on record: Cy5.5-labeled siRNA 1 mg/kg i.v., 24 hours post-injection. The method, then: Female C57BL/6 mice or transgenic mice bearing liver tumors received tail vein i.v. injections with dendrimer NPs containing Cy5.5-siRNA at 1 mg/kg of siRNA in 200 μL. At 24 h post injection, mice were euthanized and organs were removed. The biodistribution was assessed by imaging whole organs with an IVIS Lumina System (Caliper Life Sciences) with the Cy5.5 filter setting.
For confocal imaging, the tissue was cryo-sectioned ([…]) and fixed using 4% paraformaldehyde at room temperature for 10 min. The slides were washed three times with PBS and blocked for 30 min in PBS with 1% albumin. Sections were then incubated for 30 min with Alexa Fluor 488 Phalloidin (1:200 dilution, Life Technologies) in PBS with 1% albumin. Slides were washed three times with 0.1% Tween 20 and mounted using ProLong Gold Antifade (Life Technologies). Sections were imaged using an LSM 700 point scanning confocal microscope (Zeiss) equipped with a 25× objective.
Since 5A2-SC8 balances low in vivo toxicity and effectiveness for silencing the hepatocellular target FVII, first, whether 5A2-SC8 NPs could deliver siRNA into tumor cells was examined. At the age of 41 days (p41), the livers of these transgenic mice are full of tumors (FIG. 14A). On p40, mice were injected intravenously with 5A2-SC8 NPs with Cy5.5-labeled siRNA at a dosage of 1 mg siRNA/kg. […]

The next data set deals with Factor VII. Kind of data set: In vivo Factor VII silencing in mice. The settings on record: 1 mg siFVII/kg. The method, then: For in vivo delivery screening, female C57BL/6 mice received tail vein i.v. injections of PBS (negative control, n=3) or dendrimer NPs containing non-targeting siRNA (siCTR, negative control, n=3) or dendrimer NPs containing anti-Factor VII siRNA (siFVII, n=3) diluted in PBS (200 μL or less in total volume). After 48 h, body-weight gain/loss was measured and mice were anaesthetized by isofluorane inhalation for blood sample collection by retro-orbital eye bleed. Serum was isolated with serum separation tubes (Becton Dickinson) and Factor VII protein levels were analyzed by a chromogenic assay (Biophen FVII, Aniara Corporation). A standard curve was constructed using samples from PBS-injected mice and relative Factor VII expression was determined by comparing treated groups to an untreated PBS control.
Having identified dendrimers that can overcome intracellular barriers, next, the dendrimers that can overcome extracellular barriers to efficiently deliver siRNA in vivo were identified. […] Dendrimers were evaluated for their ability to silence Factor VII in hepatocytes because this blood clotting factor can be readily quantified from a small serum sample (Akinc et al., 2008; Semple et al., 2010). […] FVII activity was quantified 3 days post injection.

A short description of data set [2]: In vivo toxicity evaluation (body weight) in wild type mice. The settings on record: i.v., 4 mg siCTR/kg (100 mg dendrimer/kg or 28 mg C12-200/kg). How it is done: (§1) Wild-type mice or transgenic mice bearing liver tumors were randomly divided into different groups. Mice received tail vein i.v. injections of dendrimer NPs containing siCTR. Their body weight was monitored daily. For transgenic mice bearing liver tumors, multiple tail vain injections were performed to simulate repeated dosing.
To identify degradable dendrimers with the required balance of low toxicity and high potency required for liver cancer treatment, the degradable dendrimers were chose to evaluate their in vivo toxicity. In parallel, we analyzed C12-200 lipidoid LNPs wee chose as the best example of a non-hydrolyzable system previously shown to be potent in mice and non-human primates (Love et al., 2010). Lipidoids, as a class, are benchmark materials at the forefront of clinical research (Kanasty et al., 2013; Love et al., 2010; Sahay et al., 2013). Non-immunogenic control siRNA was used to best evaluate the toxicity of the individual dendrimers themselves. Dendrimer NPs were formulated at a weight ratio of 25:1 (dendrimer:siCTR), higher than necessary to better probe toxicity. C12-200 LNPs were prepared using identical formulation parameters as previously reported (Love et al., 2010). Size and zeta potential of each NP in PBS buffer was characterized. […] Each formulated NP was injected i.v. into wild type mice at a 4 mg siCTR/kg dose (100 mg dendrimer/kg or 28 mg C12-200/kg). […]

The nature of data set [3]: In vivo toxicity evaluation in transgenic mice bearing MYC-driven liver tumors. The settings on record: for survival after multiple injections of siCTR NPs: tumor-bearing mice, injected days 32, 36, 40, 44 at 3 mg siCTR/kg (75 mg dendrimer/kg). How it is done:
All experiments were approved by the Institutional Animal Care and Use Committees of The University of Texas Southwestern Medical Center and were consistent with local, state and federal regulations as applicable. Female C57BL/6 mice were purchased from Harlan Laboratories (Indianapolis, IN). Transgenic mice bearing MYC-driven liver tumors were generated by crossing the TRE-MYC strain with LAP-tTA strain. Mice bearing the LAP-tTA and TRE-MYC genotype were maintained on 1 mg/mL of dox, and MYC was induced by withdrawing dox. Power analysis was performed to anticipate required number of animals to achieve statistical significance.
as §1
A well-established Tet-On MYC inducible transgenic liver cancer model ws chosen (FIG. 13A) (Nguyen et al., 2014). […] At the age of 32 days (p32), these sick transgenic mice bearing aggressive liver tumors were injected with 5A2-SC8 or 6A3-SC12 NPs at 3 mg siCTR/kg dosage (75 mg dendrimer/kg or 21 mg C12-200/kg). […] In contrast to the result in WT mice, injection of C12-200 LNPs to mice bearing aggressive tumors lost >20% weight after one day, despite receiving ˜3 times less lipid than 5A2-SC8 injected mice (FIG. 12D). […] In addition to being less toxic than benchmark compounds, 5A2-SC8 NPs are more efficacious because these dendrimers reduce clinical concern for dose limiting toxicity and enable a wider therapeutic window.

The mark [4] stands for this setting: tumor-bearing mice p32, 3 mg siCTR/kg (75 mg dendrimer/kg).

The structures appear in SMILES notation. Some results are limits rather than exact numbers.

As for `CCCCCCCCSCC(C)C(=O)OCCOC(=O)CCN(CCNCCN(CCC(=O)OCCOC(=O)C(C)CSCCCCCCCC)CCC(=O)OCCOC(=O)C(C)CSCCCCCCCC)CCNCCN(CCC(=O)OCCOC(=O)C(C)CSCCCCCCCC)CCC(=O)OCCOC(=O)C(C)CSCCCCCCCC` (centres unmarked) [5A2-SC8], the “siRNA accumulation in organs (fluorescence imaging)” value in data set [1] was “siRNA accumulation in the cancerous liver, with only minor accumulation in the spleen and kidneys”. The “in vivo FVII knockdown” value in the data set with Factor VII is over 95%. Also, the body weight change result in data set [2] was “quicker recovery and gained weight normally after the first day”. For the same compound, the “tolerance in tumor-bearing mice” value in data set [3] (LAP-tTA/TRE-MYC transgenic, mouse, in vivo) was “up to 75 mg/kg”. The body weight loss entry in data set [3] (tumor-bearing mice p32, 3 mg siCTR/kg (75 mg dendrimer/kg or 21 mg C12-200/kg), after one day) is “about 5%”. In addition, in data set [3] (setting [4]), the body weight recovery entry is “quickly returned to their starting weight on the second day”. Further, the “survival after multiple injections of siCTR NPs” value in data set [3] is “well tolerated and not affect survival”.
For the compound `CCCCCCCCCCCCSCC(C)C(=O)OCCOC(=O)CCN(CCC(=O)OCCOC(=O)C(C)CSCCCCCCCCCCCC)CCN(CCN(CCC(=O)OCCOC(=O)C(C)CSCCCCCCCCCCCC)CCC(=O)OCCOC(=O)C(C)CSCCCCCCCCCCCC)CCN(CCC(=O)OCCOC(=O)C(C)CSCCCCCCCCCCCC)CCC(=O)OCCOC(=O)C(C)CSCCCCCCCCCCCC` (centres unmarked) [6A3-SC12], in data set [2], the body weight change result was “quicker recovery and gained weight normally after the first day”. Moreover, the body weight recovery entry in data set [3] (setting [4]) is recorded as “could not recover”. For the same compound, the body weight loss in data set [3] (tumor-bearing mice p32, 3 mg siCTR/kg (75 mg dendrimer/kg), by the third day) is 10%. Also, in data set [3], the “survival after multiple injections of siCTR NPs” value is “died seven days earlier compared to mice that received no treatment”.

The values are drawn from patent US11999683B2, “Lipocationic dendrimers and uses thereof” (priority 2015, dated 2024).
